Test results taken from ChEMBL document CHEMBL1201862, “PubChem BioAssay data set” (2004).
Calls of active or inactive are those of the source.

What was measured:
[1] = target: Ephrin type-A receptor 4 (Mus musculus, UniProt Q03137); assay: EphA4 ligand-binding antagonists – biochemical, colorimetric, mouse EphA4, primary screen (AID 689); format: functional
[2] = target: Estrogen receptor beta (Homo sapiens, UniProt Q92731); assay: blockers of SRC-3 recruitment to ERβ – biochemical, ELISA, streptavidin-HRP readout, orthogonal assay, confirmation (AID 1060)
Estrogen receptor beta, sequence (Q92731 whole entry): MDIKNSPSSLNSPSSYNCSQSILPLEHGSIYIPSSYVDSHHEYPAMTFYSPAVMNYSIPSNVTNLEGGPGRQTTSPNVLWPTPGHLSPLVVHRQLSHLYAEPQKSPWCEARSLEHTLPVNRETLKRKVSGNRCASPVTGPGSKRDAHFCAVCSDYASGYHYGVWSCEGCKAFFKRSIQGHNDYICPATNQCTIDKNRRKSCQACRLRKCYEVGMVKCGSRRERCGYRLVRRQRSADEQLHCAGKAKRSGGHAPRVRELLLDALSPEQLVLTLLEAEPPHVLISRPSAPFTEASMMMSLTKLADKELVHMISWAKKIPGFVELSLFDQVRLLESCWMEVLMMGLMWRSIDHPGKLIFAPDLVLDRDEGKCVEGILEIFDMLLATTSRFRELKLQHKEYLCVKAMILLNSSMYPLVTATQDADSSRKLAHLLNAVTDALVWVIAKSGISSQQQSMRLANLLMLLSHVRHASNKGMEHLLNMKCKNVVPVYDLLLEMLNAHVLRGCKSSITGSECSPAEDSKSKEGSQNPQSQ

[3] = target: T1, Tyrosine-protein phosphatase non-receptor type 7 (Homo sapiens, UniProt P35236); assay: redox-active compounds inhibiting HePTP phosphatase – biochemical, fluorescence, mechanism study (AID 2068); format: functional
T1 sequence (P35236 whole entry): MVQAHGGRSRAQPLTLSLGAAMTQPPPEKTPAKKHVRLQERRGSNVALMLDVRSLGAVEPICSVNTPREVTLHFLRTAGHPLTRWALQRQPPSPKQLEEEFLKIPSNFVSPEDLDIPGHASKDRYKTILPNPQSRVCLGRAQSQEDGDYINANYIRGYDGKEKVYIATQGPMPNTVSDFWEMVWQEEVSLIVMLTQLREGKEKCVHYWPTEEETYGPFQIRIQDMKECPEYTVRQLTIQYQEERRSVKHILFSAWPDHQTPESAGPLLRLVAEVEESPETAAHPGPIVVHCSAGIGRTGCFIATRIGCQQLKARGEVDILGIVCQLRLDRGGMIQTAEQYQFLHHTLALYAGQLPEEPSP

[4] = target: Genome polyprotein (dengue virus type 2, UniProt P29990); assay: flavivirus cap methylation enzyme inhibition – biochemical, confirmation dose response, primary screen (AID 588689); format: functional
Genome polyprotein, sequence (P29990 2492-3391 limits assumed): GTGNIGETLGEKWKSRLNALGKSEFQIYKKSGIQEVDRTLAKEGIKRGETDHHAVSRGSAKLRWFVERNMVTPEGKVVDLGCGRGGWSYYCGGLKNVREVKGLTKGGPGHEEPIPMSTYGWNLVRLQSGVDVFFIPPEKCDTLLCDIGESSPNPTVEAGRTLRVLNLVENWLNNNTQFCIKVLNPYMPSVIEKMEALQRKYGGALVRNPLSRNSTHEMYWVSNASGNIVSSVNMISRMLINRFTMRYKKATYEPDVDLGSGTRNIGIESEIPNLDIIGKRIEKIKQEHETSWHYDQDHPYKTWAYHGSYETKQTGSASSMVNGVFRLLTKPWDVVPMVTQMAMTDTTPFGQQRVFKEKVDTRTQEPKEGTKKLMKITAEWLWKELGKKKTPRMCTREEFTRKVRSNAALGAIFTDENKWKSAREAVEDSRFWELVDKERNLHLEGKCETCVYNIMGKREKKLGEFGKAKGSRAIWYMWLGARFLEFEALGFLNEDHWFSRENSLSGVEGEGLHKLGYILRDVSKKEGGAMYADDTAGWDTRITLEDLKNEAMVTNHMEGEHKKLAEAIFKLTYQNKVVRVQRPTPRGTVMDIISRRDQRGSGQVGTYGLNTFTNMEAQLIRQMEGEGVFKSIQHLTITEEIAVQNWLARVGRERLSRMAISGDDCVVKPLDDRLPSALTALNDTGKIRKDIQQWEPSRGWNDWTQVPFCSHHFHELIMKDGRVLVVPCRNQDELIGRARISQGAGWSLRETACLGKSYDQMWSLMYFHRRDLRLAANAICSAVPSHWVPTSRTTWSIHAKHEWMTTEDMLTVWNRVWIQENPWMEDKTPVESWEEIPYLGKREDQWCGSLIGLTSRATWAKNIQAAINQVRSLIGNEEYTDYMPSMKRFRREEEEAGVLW

[5] = target: Induced myeloid leukemia cell differentiation protein Mcl-1 (Homo sapiens, UniProt Q07820); format: functional
[6] = target: Glyceraldehyde-3-phosphate dehydrogenase (Homo sapiens, UniProt P04406)
Glyceraldehyde-3-phosphate dehydrogenase, sequence (P04406 whole entry): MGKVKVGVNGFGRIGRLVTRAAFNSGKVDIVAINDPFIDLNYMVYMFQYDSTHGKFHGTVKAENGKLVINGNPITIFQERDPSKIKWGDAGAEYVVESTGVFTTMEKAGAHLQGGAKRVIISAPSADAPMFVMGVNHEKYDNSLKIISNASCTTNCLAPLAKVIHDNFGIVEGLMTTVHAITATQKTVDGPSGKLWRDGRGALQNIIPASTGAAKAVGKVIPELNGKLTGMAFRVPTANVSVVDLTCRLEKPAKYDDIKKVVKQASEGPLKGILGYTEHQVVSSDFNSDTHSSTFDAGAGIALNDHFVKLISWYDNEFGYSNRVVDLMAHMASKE

[7] = target: Alkaline phosphatase, placental type (Homo sapiens, UniProt P05187); assay: human placental alkaline phosphatase inhibition – biochemical, luminescence, confirmation (AID 1512); format: functional
Alkaline phosphatase, placental type, sequence (P05187 whole entry): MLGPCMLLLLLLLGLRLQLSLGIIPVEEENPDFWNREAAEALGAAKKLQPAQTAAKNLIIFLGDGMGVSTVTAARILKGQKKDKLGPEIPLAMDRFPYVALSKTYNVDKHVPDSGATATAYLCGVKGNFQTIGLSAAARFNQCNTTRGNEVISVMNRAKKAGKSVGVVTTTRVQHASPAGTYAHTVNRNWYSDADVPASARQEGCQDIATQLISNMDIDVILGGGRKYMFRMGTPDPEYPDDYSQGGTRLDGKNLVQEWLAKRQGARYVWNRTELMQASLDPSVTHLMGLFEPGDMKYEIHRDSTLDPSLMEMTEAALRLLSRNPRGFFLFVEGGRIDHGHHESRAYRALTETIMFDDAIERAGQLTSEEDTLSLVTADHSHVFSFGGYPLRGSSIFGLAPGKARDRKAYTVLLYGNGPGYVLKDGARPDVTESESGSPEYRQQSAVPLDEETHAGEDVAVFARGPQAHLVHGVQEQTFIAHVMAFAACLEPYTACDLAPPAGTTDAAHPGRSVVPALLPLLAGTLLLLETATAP

[8] = target: T2, Alkaline phosphatase, tissue-nonspecific isozyme (Homo sapiens, UniProt P05186); assay: potency against alkaline phosphatase TNAP – biochemical, luminescent, dose response, SAR follow-up (AID 1056)
T2 sequence (P05186 whole entry): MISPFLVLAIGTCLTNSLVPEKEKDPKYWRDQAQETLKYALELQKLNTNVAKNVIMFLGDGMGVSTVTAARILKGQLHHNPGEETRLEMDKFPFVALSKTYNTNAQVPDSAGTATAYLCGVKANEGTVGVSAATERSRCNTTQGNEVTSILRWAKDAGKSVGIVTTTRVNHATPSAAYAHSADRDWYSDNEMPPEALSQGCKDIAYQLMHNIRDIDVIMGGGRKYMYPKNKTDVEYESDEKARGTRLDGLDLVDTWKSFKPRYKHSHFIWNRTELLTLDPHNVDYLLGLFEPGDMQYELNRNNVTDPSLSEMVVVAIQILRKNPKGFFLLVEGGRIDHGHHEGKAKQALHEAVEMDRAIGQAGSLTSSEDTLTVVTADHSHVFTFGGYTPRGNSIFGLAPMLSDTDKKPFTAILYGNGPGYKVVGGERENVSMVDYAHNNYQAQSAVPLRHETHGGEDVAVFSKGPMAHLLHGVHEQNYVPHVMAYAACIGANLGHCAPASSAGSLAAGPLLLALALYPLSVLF

[9] = target: Cytochrome P450 3A4 (Homo sapiens, UniProt P08684);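 also: CYP3A4 tested as one member of a cytochrome P450 panel screen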
[10] = target: T3, Heat shock factor protein 1 (Mus musculus, UniProt P38532); assay: enhancement of HSF1-driven luciferase signal – cell-based, NIH3T3, luminescence, dose retest, confirmation (AID 435004); format: functional;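 also: stress induced by proteasome inhibitor MG132 added 30 min after compound; luciferase reporter driven by HSF1 response element in NIH3T3 cells; actives raise luminescence as potentiators of the MG132 stress response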
T3 sequence (P38532 whole entry): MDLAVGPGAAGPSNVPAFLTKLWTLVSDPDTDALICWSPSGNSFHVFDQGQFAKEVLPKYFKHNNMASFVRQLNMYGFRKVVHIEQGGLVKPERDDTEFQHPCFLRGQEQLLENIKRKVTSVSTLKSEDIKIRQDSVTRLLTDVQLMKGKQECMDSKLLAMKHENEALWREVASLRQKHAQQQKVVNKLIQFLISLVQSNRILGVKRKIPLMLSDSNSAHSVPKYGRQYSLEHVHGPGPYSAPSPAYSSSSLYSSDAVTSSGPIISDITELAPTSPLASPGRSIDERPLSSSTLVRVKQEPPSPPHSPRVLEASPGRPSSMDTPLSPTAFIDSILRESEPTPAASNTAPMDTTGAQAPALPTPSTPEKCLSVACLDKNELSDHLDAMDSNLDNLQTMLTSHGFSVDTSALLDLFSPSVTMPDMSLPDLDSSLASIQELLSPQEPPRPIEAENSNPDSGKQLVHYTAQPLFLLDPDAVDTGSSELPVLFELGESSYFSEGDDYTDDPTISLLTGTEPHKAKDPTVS

[11] = target: Neurotensin receptor type 1 (Homo sapiens, UniProt P30989); format: functional;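 also: Image-based confirmatory dose-response assay measuring agonist activity at NTR1; NTR1-expressing U2OS osteosarcoma cells imaged for beta-arrestin GFP spot formation; agonist potency where compounds increase beta-arrestin recruitment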
Neurotensin receptor type 1, sequence (P30989 whole entry): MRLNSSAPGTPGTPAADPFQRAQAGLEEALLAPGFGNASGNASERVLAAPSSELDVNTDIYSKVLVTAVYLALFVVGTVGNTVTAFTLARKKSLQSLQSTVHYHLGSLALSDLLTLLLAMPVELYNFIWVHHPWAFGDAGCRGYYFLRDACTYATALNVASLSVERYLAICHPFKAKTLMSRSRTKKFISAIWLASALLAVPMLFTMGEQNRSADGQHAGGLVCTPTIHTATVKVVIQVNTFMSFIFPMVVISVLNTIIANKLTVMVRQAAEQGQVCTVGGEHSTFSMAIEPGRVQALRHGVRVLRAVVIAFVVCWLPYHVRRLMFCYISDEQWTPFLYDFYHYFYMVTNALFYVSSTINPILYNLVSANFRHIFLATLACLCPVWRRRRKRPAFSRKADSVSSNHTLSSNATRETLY

[12] = target: T4, Dual specificity protein phosphatase 6 (Rattus norvegicus, UniProt Q64346)
T4 sequence (Q64346 whole entry): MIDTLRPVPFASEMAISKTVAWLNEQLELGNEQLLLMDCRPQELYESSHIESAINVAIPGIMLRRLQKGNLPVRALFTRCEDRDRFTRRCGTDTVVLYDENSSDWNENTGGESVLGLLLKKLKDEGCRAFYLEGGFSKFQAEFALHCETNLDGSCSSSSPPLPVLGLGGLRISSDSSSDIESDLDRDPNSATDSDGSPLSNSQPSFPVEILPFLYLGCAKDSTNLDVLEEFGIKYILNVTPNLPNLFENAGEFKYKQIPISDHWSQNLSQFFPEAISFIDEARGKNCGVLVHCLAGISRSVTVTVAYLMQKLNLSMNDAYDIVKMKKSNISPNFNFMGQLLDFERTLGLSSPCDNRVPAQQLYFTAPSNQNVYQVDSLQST

[13] = target: T4, Dual specificity protein phosphatase 6; format: functional
[14] = target: T1, Tyrosine-protein phosphatase non-receptor type 7; format: functional
[15] = system: HEK293; assay: inhibition of NOD1-driven NF-kB reporter – cell-based, luminescence, uHTS, primary screen (AID 1578); format: functional; conditions: Homo sapiens
[16] = target: Nucleotide-binding oligomerization domain-containing protein 2 (Homo sapiens, UniProt Q9HC29); assay: inhibition of NOD2-driven NF-kB reporter – cell-based, luminescence, uHTS, HEK293 (AID 1566); format: functional
Nucleotide-binding oligomerization domain-containing protein 2, sequence (Q9HC29 whole entry, the tested form may be a part): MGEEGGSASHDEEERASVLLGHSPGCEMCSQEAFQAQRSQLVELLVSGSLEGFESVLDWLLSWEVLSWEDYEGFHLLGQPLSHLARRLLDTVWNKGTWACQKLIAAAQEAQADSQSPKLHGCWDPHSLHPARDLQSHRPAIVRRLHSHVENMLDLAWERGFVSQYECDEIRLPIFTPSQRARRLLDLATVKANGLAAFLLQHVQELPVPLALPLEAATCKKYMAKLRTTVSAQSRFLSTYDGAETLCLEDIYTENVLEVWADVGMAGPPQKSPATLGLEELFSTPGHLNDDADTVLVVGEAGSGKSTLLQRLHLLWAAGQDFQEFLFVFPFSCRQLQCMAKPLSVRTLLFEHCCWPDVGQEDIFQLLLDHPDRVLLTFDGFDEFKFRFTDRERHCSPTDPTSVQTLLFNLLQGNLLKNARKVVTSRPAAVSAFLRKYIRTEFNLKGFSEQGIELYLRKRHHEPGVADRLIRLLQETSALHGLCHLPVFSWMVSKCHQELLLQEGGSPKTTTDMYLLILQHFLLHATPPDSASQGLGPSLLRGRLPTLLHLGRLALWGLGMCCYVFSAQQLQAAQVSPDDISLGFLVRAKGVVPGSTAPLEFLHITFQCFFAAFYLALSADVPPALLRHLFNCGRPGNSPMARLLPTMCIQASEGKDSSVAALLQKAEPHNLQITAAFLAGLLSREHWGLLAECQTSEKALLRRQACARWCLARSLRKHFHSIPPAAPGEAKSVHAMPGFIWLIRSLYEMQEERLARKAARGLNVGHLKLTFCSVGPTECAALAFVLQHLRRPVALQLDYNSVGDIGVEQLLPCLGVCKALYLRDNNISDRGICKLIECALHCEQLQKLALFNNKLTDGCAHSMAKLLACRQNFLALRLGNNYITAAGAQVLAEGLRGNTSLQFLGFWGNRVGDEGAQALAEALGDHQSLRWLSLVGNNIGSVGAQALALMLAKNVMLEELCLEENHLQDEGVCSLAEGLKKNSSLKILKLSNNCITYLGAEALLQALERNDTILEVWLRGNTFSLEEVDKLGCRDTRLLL

[17] = system: HEK293; assay: cells; format: functional, cell-based; conditions: Homo sapiens
[18] = system: HEK293; assay: NOD2 signaling inhibitors in MDP-stimulated cells, cell-based, uHTS, luminescence (AID 2001); format: functional; conditions: Homo sapiens
[19] = system: HEK293; assay: cells; format: functional, cell-based; conditions: Homo sapiens; remark: listed apart in the source
[20] = system: HEK293; assay: cells; format: functional, cell-based; conditions: Homo sapiens; remark: listed apart in the source
[21] = system: INS1; assay: INS-1E survival protection against cytokine death – cell-based, luminescence, retest, dose response (AID 449756); format: functional; conditions: Rattus norvegicus;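 also: cell death triggered by IL-1 beta plus TNF-alpha plus IFN-gamma mixture; protective hits raise ATP signal compared with cytokine alone wells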
[22] = target: T5, Apoptotic protease-activating factor 1 (Homo sapiens, UniProt O14727); format: functional
T5 sequence (O14727 whole entry): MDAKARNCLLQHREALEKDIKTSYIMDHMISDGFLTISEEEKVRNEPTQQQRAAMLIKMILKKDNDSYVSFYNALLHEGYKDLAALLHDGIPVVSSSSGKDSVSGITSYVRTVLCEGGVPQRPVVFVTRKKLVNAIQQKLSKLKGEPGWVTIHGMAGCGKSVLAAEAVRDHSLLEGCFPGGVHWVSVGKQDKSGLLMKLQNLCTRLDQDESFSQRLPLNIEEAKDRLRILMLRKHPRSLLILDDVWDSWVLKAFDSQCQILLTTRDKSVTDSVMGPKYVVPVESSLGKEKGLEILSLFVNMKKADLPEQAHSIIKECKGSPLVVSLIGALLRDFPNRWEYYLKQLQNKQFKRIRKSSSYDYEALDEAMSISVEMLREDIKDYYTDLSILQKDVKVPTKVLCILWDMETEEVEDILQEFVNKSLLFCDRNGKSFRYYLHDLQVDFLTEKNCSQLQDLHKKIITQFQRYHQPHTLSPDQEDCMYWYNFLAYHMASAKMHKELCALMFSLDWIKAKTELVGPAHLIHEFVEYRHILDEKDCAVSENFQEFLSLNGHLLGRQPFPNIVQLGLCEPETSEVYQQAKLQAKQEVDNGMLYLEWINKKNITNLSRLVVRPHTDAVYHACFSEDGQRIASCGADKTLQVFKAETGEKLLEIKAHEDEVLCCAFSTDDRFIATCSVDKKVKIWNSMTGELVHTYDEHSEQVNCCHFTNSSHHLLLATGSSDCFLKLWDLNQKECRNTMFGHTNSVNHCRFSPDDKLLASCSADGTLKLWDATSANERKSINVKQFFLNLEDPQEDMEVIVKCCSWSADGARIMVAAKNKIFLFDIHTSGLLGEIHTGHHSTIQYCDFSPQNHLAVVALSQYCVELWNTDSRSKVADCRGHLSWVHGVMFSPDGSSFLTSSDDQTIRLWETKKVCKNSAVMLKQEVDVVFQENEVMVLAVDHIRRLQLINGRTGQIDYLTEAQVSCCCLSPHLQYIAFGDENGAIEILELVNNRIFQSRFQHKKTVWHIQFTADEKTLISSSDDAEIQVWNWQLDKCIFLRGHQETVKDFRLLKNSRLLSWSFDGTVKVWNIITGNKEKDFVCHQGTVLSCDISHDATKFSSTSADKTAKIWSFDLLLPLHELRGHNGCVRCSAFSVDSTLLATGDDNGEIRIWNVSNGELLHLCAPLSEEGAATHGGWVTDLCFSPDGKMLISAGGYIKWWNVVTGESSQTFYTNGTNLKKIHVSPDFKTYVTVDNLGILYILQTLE

[23] = system: Streptococcus; assay: GAS UMAA2166 growth inhibition – luminescence, BacTiterGlo, counter-screen for streptokinase expression inhibitor project, dose response (AID 1915); format: functional, organism-based; conditions: Streptococcus;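 also: potency for reduction of bacterial viability or growth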
[24] = system: Streptococcus sp. 'group A'; assay: Streptococcus pyogenes SK(-)GAS viability under kanamycin – luminescence, BacTiterGlo, confirmation, counter-screen for streptokinase expression inhibitor project, dose response (AID 1900); format: functional, organism-based; conditions: Streptococcus sp. 'group A'
[25] = system: Saccharomyces cerevisiae; assay: S. cerevisiae Caspase-1/ASC signal blockers IC50, NALP1 inhibitor project selectivity test (AID 488863); format: functional, organism-based
[26] = target: NACHT, LRR and PYD domains-containing protein 1 (Homo sapiens, UniProt Q9C000); assay: NALP1 inhibitors in yeast, dose response, luminescent (AID 488860); format: functional
[27] = viability of uninfected HEp-2 cells – cell-based, HTS, cytotoxicity control for RSV inhibitor project, dose response (AID 2410); format: functional; conditions: human respiratory syncytial virus
[28] = target: Dual specificity protein phosphatase 3 (Homo sapiens, UniProt P51452); assay: inhibition constants for human DUSP3 – biochemical, colorimetric, SAR follow-up (AID 2004)
Dual specificity protein phosphatase 3, sequence (P51452 whole entry): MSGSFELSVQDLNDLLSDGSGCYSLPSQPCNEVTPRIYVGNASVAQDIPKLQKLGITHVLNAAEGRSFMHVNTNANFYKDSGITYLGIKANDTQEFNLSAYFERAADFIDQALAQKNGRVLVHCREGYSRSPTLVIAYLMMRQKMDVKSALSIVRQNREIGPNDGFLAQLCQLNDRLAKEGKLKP

Ephrin type-A receptor 4, sequence (Q03137 whole entry): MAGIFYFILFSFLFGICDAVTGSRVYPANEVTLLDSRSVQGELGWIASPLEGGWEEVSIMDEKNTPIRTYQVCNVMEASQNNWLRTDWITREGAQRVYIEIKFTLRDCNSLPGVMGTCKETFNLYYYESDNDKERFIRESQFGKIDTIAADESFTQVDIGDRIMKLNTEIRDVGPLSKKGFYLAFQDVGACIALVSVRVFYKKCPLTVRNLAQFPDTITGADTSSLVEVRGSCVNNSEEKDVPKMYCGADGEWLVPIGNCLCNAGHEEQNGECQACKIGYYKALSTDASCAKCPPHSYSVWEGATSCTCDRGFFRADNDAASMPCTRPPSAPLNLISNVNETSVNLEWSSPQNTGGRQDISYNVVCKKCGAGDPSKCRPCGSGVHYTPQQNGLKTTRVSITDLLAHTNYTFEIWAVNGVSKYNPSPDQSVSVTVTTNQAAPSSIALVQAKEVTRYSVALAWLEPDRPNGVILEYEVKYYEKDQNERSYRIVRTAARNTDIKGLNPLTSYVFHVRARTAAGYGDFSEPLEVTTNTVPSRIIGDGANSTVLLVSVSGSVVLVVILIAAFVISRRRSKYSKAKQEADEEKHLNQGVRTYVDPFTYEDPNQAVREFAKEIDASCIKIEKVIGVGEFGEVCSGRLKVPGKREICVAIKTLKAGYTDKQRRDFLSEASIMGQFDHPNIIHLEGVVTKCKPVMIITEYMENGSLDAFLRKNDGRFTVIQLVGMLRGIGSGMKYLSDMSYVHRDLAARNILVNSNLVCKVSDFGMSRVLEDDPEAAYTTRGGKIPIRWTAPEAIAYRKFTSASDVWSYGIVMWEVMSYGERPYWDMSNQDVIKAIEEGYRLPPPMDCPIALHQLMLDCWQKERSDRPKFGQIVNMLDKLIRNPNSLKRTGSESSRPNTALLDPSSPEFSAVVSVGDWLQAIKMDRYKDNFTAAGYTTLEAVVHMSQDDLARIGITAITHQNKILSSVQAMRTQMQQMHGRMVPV

O=C(NCCc1ccccc1)c1ccc2nc(-c3ccco3)c(-c3ccco3)nc2c1
IC50 [1]: 21.3 µM (active) | IC50 [2]: 2.59 µM (not active) | IC50 [3]: 1.05 µM (active) | IC50 [4]: 59.1 µM (active) | IC50 [5]: 3.16 µM (active)

COc1ccccc1-c1nc(SCc2cccc(Br)c2)n[nH]1
IC50 [6]: > 100 µM (not active) | IC50 [7]: > 100 µM (inactive) | IC50 [8]: > 100 µM (inactive)

CCOC(=O)COc1ccc(/C=C/[N+](=O)[O-])c(OCC(=O)OCC)c1
AC50 [9]: 11.2 µM (inconclusive) | EC50 [10]: 6.52 µM (inconclusive) | EC50 [11]: 3.89 µM (active)

NC(=O)[C@H](Cc1ccccc1)n1c(=O)[nH]c(=O)n(-c2ccc(Cl)cc2)c1=O
IC50 [12]: > 100 µM (inactive) | IC50 [13]: > 100 µM (inactive) | IC50 [6]: > 100 µM (not active) | IC50 [14]: > 100 µM (not active)

Nc1ncnc(Nc2ccccn2)c1[N+](=O)[O-]
EC50 [15]: 17.8 µM (active) | EC50 [16]: 18.8 µM (active) | IC50 [17]: 7.86 µM (active) | IC50 [18]: 17.6 µM (inactive) | IC50 [19]: > 20 µM (inactive) | IC50 [20]: > 20 µM (inactive)

Cc1[nH]n(-c2ccccc2)c(=O)c1/C=N/NC(=O)c1cccc(F)c1
EC50 [15]: 8.44 µM (active) | AC50 [21]: 2.03 µM (active) | EC50 [16]: > 20 µM (inactive) | IC50 [22]: 7.78 µM (active) | IC50 [17]: > 20 µM (inactive) | IC50 [18]: > 20 µM (inactive) | IC50 [19]: > 20 µM (inactive) | EC50 [23]: 7.25 µM (active) | IC50 [20]: > 20 µM (inactive) | EC50 [24]: 4.31 µM (active)

O=C1C2CC=CCC2C(=O)N1c1n[nH]c(-c2ccccc2)n1 (centres undefined)
IC50 [6]: > 100 µM (not active) | IC50 [7]: 4 µM (active) | IC50 [8]: 0.308 µM (active)

COc1ccccc1N1C(=O)C2CCC(c3ccccc3)CC2C1=O (centres undefined)
IC50 [25]: > 100 µM (inactive) | IC50 [26]: > 100 µM (inactive)

COC(=O)C(=Cc1ccc(OCc2ccc([N+](=O)[O-])cc2)c(OC)c1)C(=O)OC
EC50 [15]: > 20 µM (inactive) | IC50 [17]: 4.31 µM (active) | IC50 [18]: 8.46 µM (active) | IC50 [19]: > 20 µM (inactive) | CC50 [27]: 6.91 µM (active) | EC50 [11]: 5.98 µM (active)

c1ccc2c(CNC34CC5CC(CC(C5)C3)C4)c[nH]c2c1
Ki [28]: 32.9 µM (inactive)

O=C1C=CC(=O)N1Nc1c(Cl)cc(Cl)cc1Cl
Ki [28]: 33.7 µM (inactive)
